Results reported in patent publication US10626095B2, “Cyanotriazole compounds” (OTSUKA PHARMACEUTICAL CO., LTD., priority 2013, dated 2020).

Experiments:
[1] = system: Zucker Diabetic Fatty (ZDF) rat; test: Meal load test in type 2 diabetic model rats (postprandial blood glucose); type: in vivo; parameters: unit not given here; conditions: ZDF rats fasted overnight, oral 10 mg/kg in 5% Arabia gum, blood glucose one hour after meal loading (50 kcal/kg)
Procedure, shortened: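 Overnight-fasted (17 h) ZDF rats, n=6 per group, given compound at 10 or 30 mg/kg orally in 5% Arabia gum 2 h before or just before a 50 kcal/kg AIN-93G meal load. Blood glucose at 1 h; effect expressed as BG1h difference from vehicle.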

[2] = system: NaCT-CHO (CHO cells stably expressing human NaCT); test: Assay of the citric acid cycle activation ([1,5-14C]-citric acid, diffusion of [14C]-CO2); type: cell-based; conditions: 1 hour incubation at 37° C. with [1,5-14C]-citric acid
Procedure, shortened: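 NaCT-CHO cells (pME-CHO empty-vector cells for non-specific counts) were incubated 1 h at 37 °C in Na+-containing HEPES-Tris pH 7.4 with compound plus an equal volume of 0.4 mM [1,5-14C]-citric acid solution. Residual cell radioactivity was counted, [14C]-CO2 diffusion was taken as (Total−R)/(Total−NS)×100%, and EC50 was derived by regression.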

melting point [°C] | SMILES | BG1h (BG1h difference between compound group and vehicle group) [1] | EC50 [2] [µM]
189 to 192 | N#Cc1[nH]nnc1-c1cccc(/C=C/c2ccc(F)cc2C(F)(F)F)c1 [Example 600, 5-{3-[(E)-2-(4-fluoro-2-trifluoromethyl-phenyl)-vinyl]-phenyl}-3H-[1,2,3]triazole-4-carbonitrile] | −74.0 | 0.43
194 to 196 | Cc1cc(/C=C/c2cccc(-c3nn[nH]c3C#N)c2)ccc1F [Example 607, 5-{3-[(E)-2-(4-fluoro-3-methyl-phenyl)-vinyl]-phenyl}-3H-[1,2,3]triazole-4-carbonitrile] | −106.8 | 0.45
231 to 233 | N#Cc1[nH]nnc1-c1cc(Cl)cc(-c2cc3ccccc3s2)c1 [Example 718, 5-(3-benzo[b]thiophen-2-yl-5-chloro-phenyl)-3H-[1,2,3]triazole-4-carbonitrile] | −147.5 | 1.51
214 to 218 | Cc1cc(-c2nn[nH]c2C#N)ccc1-c1nccc(C(F)(F)F)n1 [Example 989, 5-[3-methyl-4-(4-trifluoromethyl-pyrimidin-2-yl)-phenyl]-3H-[1,2,3]triazole-4-carbonitrile] | −116.0 | 0.8
 | N#Cc1[nH]nnc1-c1cccc(/C=C/c2cc3ccccc3s2)c1 [Example 1004, 5-[3-((E)-2-benzo[b]thiophen-2-yl-vinyl)-phenyl]-3H-[1,2,3]triazole-4-carbonitrile] | −89.8 | 1.8
 | N#Cc1[nH]nnc1-c1cccc(/C=C/c2ccc3c(c2)OC(F)(F)O3)c1 [Example 1017, 5-{3-[(E)-2-(2,2-difluoro-benzo[1,3]dioxol-5-yl)-vinyl]-phenyl}-3H-[1,2,3]triazole-4-carbonitrile] | −124.6 | 1
 | N#Cc1[nH]nnc1-c1cccc(/C=C/c2cccc(C(F)(F)F)n2)c1 [Example 1018, 5-{3-[(E)-2-(6-trifluoromethyl-pyridin-2-yl)-vinyl]-phenyl}-3H-[1,2,3]triazole-4-carbonitrile] | −59.2 | 1.17
 | CCc1sc(-c2ccc(Cl)cc2F)nc1-c1nn[nH]c1C#N [Example 1248, 5-[2-(4-chloro-2-fluoro-phenyl)-5-ethyl-thiazol-4-yl]-3H-[1,2,3]triazole-4-carbonitrile] | −82.2 | 3.05
 | N#Cc1[nH]nnc1-c1ccc(/C=C/c2ccc(F)cc2)o1 [Example 1505, 5-{5-[(E)-2-(4-fluoro-phenyl)-vinyl]-furan-2-yl}-3H-[1,2,3]triazole-4-carbonitrile] | −123.5 | 0.42
230 to 233 | N#Cc1[nH]nnc1-c1cccc(-c2cc3ccccc3o2)n1 [Example 1573, 5-(6-(benzofuran-2-yl)-pyridin-2-yl)-3H-[1,2,3]triazole-4-carbonitrile] | −132.7 | 1.03
 | N#Cc1[nH]nnc1-c1cc(N2CCCCC2)nc(-c2ccccc2)n1 [Example 1672, 5-(2-phenyl-6-(piperidin-1-yl)-pyrimidin-4-yl)-3H-[1,2,3]triazole-4-carbonitrile] | −94.8 | 1.29
 | N#Cc1[nH]nnc1-c1cc(N2CCCC2)nc(-c2ccccc2)n1 [Example 1676, 5-(2-phenyl-6-(pyrrolidin-1-yl)-pyrimidin-4-yl)-3H-[1,2,3]triazole-4-carbonitrile] | −49.5 | 2.22
